Among the test systems are MDA-MB-231 breast; EKVX NSCLC; HCT-15 colon; CAKI-1 renal; NCI/ADR-RES ovarian; DU-145 prostate; RPMI-8226 leukemia; 786-0 renal; KM12 colon; LOX IMVI melanoma; A549 NSCLC; BT-549 breast; M14 melanoma; MALME-3M melanoma; TK-10 renal; SK-MEL-2 melanoma; MDA-N; OVCAR-3 ovarian; HCT-116 colon.
Experiment in all cases: NCI anticancer screen, dose series, 48 h

The values below come from PubChem BioAssay (NCI).

Each structure is given as a SMILES string.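 Compound exposure: 48 hours, 5 concentrations, 96-well plates. TGI denotes the concentration required for complete inhibition of growth.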

Turning to `COC(=O)c1cc(C#N)[nH]c1-c1ccsc1`, the TGI in the assay with MDA-MB-231 breast, in the assay with EKVX NSCLC, with HCT-15 colon, in the assay with CAKI-1 renal, with NCI/ADR-RES ovarian and with DU-145 prostate was greater than 100 µM in each case. The TGI in the assay on RPMI-8226 leukemia, with 786-0 renal, in the assay with KM12 colon, in the assay on LOX IMVI melanoma, with A549 NSCLC and with BT-549 breast was greater than 100 µM in each case. The TGI with M14 melanoma, in the assay on MALME-3M melanoma, with TK-10 renal, in the assay with SK-MEL-2 melanoma, with MDA-N and in the assay on OVCAR-3 ovarian was greater than 100 µM throughout. For the same compound, the TGI in the assay with HCT-116 colon is greater than 100 µM.
Turning to `O=c1c2cccnc2[nH]c2ccc3scnc3c12`, the TGI in the assay on MDA-MB-231 breast, with EKVX NSCLC, in the assay with HCT-15 colon, with CAKI-1 renal, with NCI/ADR-RES ovarian and with DU-145 prostate was greater than 10 µM throughout. The TGI in the assay on RPMI-8226 leukemia, with 786-0 renal, in the assay on KM12 colon, with LOX IMVI melanoma, in the assay on A549 NSCLC and in the assay with BT-549 breast was greater than 10 µM each time. Moreover, the TGI in the assay on M14 melanoma, in the assay with MALME-3M melanoma, in the assay with TK-10 renal, in the assay on SK-MEL-2 melanoma, in the assay on MDA-N and in the assay with OVCAR-3 ovarian was greater than 10 µM each time. Further, in the assay with HCT-116 colon, the TGI turned out to be 9.79 µM.
On to `CCOC(=O)c1sc2nc(SC)nc(Nc3ccc4c(c3)OCCCO4)c2c1N`, for which the TGI with MDA-MB-231 breast, in the assay with EKVX NSCLC, in the assay on HCT-15 colon, in the assay with CAKI-1 renal, in the assay on NCI/ADR-RES ovarian and in the assay on DU-145 prostate was greater than 100 µM throughout. Also, the TGI in the assay with RPMI-8226 leukemia, in the assay with 786-0 renal, in the assay on KM12 colon, in the assay on LOX IMVI melanoma, in the assay on A549 NSCLC and with BT-549 breast was greater than 100 µM in each case. Further, the TGI is greater than 100 µM in the assay on M14 melanoma; 80.7 µM with MALME-3M melanoma; greater than 100 µM in the assay with TK-10 renal; greater than 100 µM in the assay on SK-MEL-2 melanoma; greater than 100 µM with MDA-N; 75.9 µM in the assay with OVCAR-3 ovarian. In addition, the TGI in the assay on HCT-116 colon was greater than 100 µM.
In the case of `CC1CCCOc2ccc(cc2)C=Nc2ccc(cc2)CCc2ccc(cc2)N=Cc2ccc(cc2)OCCC1` (stereo unspecified), the TGI with MDA-MB-231 breast, in the assay on EKVX NSCLC, in the assay with HCT-15 colon, with CAKI-1 renal, in the assay with NCI/ADR-RES ovarian and with DU-145 prostate was greater than 100 µM throughout. In addition, the TGI in the assay on RPMI-8226 leukemia, in the assay with 786-0 renal, in the assay on KM12 colon, with LOX IMVI melanoma, in the assay with A549 NSCLC and in the assay with BT-549 breast was greater than 100 µM throughout. In addition, the TGI with M14 melanoma, with MALME-3M melanoma, in the assay on TK-10 renal, in the assay with SK-MEL-2 melanoma, in the assay on MDA-N and in the assay with OVCAR-3 ovarian was greater than 100 µM throughout. The compound also had a TGI with HCT-116 colon greater than 100 µM.
